How the values were obtained:
[1] = Taste and spit assay phase I - qualitative assessment; format: in vivo; conditions: 20 μM in 0.5% ethanol, 10 ml samples, 5 individuals, ambient temperature
Procedure: The taste of a sample of compound of formula (Ia) with regard to sweetness and fructose enhancing features was assessed by using a panel of trained sensory evaluators experienced in the sweet taste estimation procedure. 5 individuals were asked to taste the quality of single samples of 10 ml volume. Panelists were asked to take a sample of the liquid to be assessed (20 μM test substance compound of formula (Ia) in 0.5% ethanol) into the mouth and after some time allowed for taste perception to spit the sample out completely. Subsequently, the panelists were asked to rinse their mouth well with water or black tea to reduce any potential carry over effects. The tasting of a sample could be repeated if required. In a first descriptive test 5 individuals were asked to taste the quality of single samples of 10 ml volume (maximum 3 subsequent samples). The samples were served at ambient temperature. The individuals of the taste panel were asked to answer the following questions with regard to the quality of taste: 1) does the sample taste sweet?, 2) is there another taste detectable (bitter, sour, salty, umami)?, 3) is there an off- or aftertaste?, 4) is there anything else remarkable about the perception of the sample?

[2] = Solubility assessment in buffer (visual check by two persons); format: physicochemical
Procedure: 20 μmol (8.96 mg) of the compound of formula (Ia) were used for samples preparation. The samples were partitioned into two portions for each buffer system and placed into 1.6 ml glass vials. To each of the vials 100 μl of the respective buffer solution was added to prepare the 100 mM samples. All Samples were thoroughly sonicated and vortexed to yield homogenous solutions or suspensions. The resulting set of samples consisted of • Compound of formula (Ia)—100 mM, buffer 3.0 • Compound of formula (Ia)—100 mM, buffer 6.5
In a second step from each of the prior listed samples 7.5 μl were pipetted into 1.6 ml glass vials followed by addition of 142.5 μl of the respective buffer solution. The resulting set of samples consisted of: • Compound of formula (Ia)—5 mM, buffer 3.0 • Compound of formula (Ia)—5 mM, buffer 6.5
In a third step, after sonication and vortexing to yield homogenous solutions or suspensions, 25 μl from each of the samples listed above were pipetted into 1.6 ml glass vials followed by addition of 100 μl of the respective buffer solution. The resulting set of samples consisted of: • Compound of formula (Ia)—1 mM, buffer 3.0 • Compound of formula (Ia)—1 mM, buffer 6.5
After the preparation of all 6 samples, the entire set was sonicated and vortexed again.
Afterwards the set of 6 samples was placed into a deep freezer and stored at −22° C. for 72 h. After that period, the samples were thawed, sonicated, and vortexed.
In a final step the set of 6 samples was placed into a dark box at 23° C. for 72 h. After that period, the samples were sonicated, and vortexed.
The results of the solubility study are documented in three tables. Three categories for the state of solution are in generally used: “Yes”, “Incomplete” and “No”. The category “Yes” is only used in case of a clear flawless solution. The category “Incomplete” is used in case of a visible strong reduction of undissolved matter. The category “No” was used for all other cases.

Dissolved after freezing/thawing ([2]; 1 mM, buffer 3.0, after −22° C. for 72 h and thawing): yes
Dissolved after three days at room temperature ([2]; 1 mM, buffer 3.0, dark box at 23° C. for 72 h): yes
Immediately dissolved ([2]; 1 mM, buffer 3.0, directly after sample preparation): yes
Dissolved after freezing/thawing ([2]; 1 mM, buffer 6.5, after −22° C. for 72 h and thawing): yes
Dissolved after three days at room temperature ([2]; 1 mM, buffer 6.5, dark box at 23° C. for 72 h): yes
Immediately dissolved ([2]; 1 mM, buffer 6.5, directly after sample preparation): yes
Dissolved after freezing/thawing ([2]; 5 mM, buffer 3.0, after −22° C. for 72 h and thawing): yes
Dissolved after three days at room temperature ([2]; 5 mM, buffer 3.0, dark box at 23° C. for 72 h): yes
Immediately dissolved ([2]; 5 mM, buffer 3.0, directly after sample preparation): yes
Dissolved after freezing/thawing ([2]; 5 mM, buffer 6.5, after −22° C. for 72 h and thawing): yes
Dissolved after three days at room temperature ([2]; 5 mM, buffer 6.5, dark box at 23° C. for 72 h): yes
Immediately dissolved ([2]; 5 mM, buffer 6.5, directly after sample preparation): yes
Dissolved after freezing/thawing ([2]; 100 mM, buffer 3.0, after −22° C. for 72 h and thawing): yes
Dissolved after three days at room temperature ([2]; 100 mM, buffer 3.0, dark box at 23° C. for 72 h): yes
Immediately dissolved ([2]; 100 mM, buffer 3.0, directly after sample preparation): yes
Dissolved after freezing/thawing ([2]; 100 mM, buffer 6.5, after −22° C. for 72 h and thawing): yes
Dissolved after three days at room temperature ([2]; 100 mM, buffer 6.5, dark box at 23° C. for 72 h): yes
Immediately dissolved ([2]; 100 mM, buffer 6.5, directly after sample preparation): yes
Solubility (overall) ([2]; summary: 1, 5 and 100 mM in water with buffer at pH 3.0 and 6.5): immediately dissolved at all conditions
SMILES: CC(=O)N(O)CCCCCNC(=O)C(O)(CC(=O)O)CC(=O)NCCCN(O)C(C)=O (stereo not drawn) [compound of formula (Ia)]
Characteristic taste of the sample (sweet, bitter, sour, salty, umami) [1]: No characteristic taste was identified
Off- or aftertaste [1]: no off-taste was detected
